Measured values reported in patent US8993768B2, “Tropolone compounds for treating or preventing retroviral infection” (The United States of America, as represented by the …, priority 2011, dated 2015).
Like-named read-outs stand apart in the source and are kept apart here.

Experiments:
p66^DA/p51 HIV-1 RT = target: T1, p66^DA/p51 HIV-1 RT (Human immunodeficiency virus type 1 group M subtype B, UniProt P04585, D1136A); test: DNA-dependent DNA polymerase assay, RNase H-deficient mutant p66DA/p51; format: biochemical; conditions: 20 μM
T1 construct: RT is a p66/p51 heterodimer comprised of asymmetrically-organized subunits processed from the 165 kDa gag/pol polyprotein precursor; (His)6; made in house; host or cells: Escherichia coli
Method: (§1) DNA-dependent DNA synthesis was measured on a fluorescently-labeled duplex DNA prepared by annealing a 33-nt template, 5′-CACTGCTCAAGAAGTTCCAATCCTAAATACATA-3′ (SEQ ID NO: 3), to the 5′-Cy5-labeled primer 5′-ATGTATGGGTATGTATTTAGG-3′ (SEQ ID NO: 4). Polymerization was initiated by adding 1 μl of 2 mM dNTPs to 9 μl of mixture containing 4 ng enzyme, 200 nM substrate, 20 μM α-hydroxytropolones in 10 mM Tris, pH 7.8, 80 mM KCl, 1 mM DTT, 10 mM MgCl2, and 10% DMSO at 37° C. DNA synthesis was quenched with 10 μl of a gel-loading buffer after 10 minutes, and reaction products were analyzed by denaturing polyacrylamide gel electrophoresis and fluorescent imaging.
(§2) In order to examine the specificity of our manicol analogs, their effect on the DNA polymerase activity of wild type p66/p51 HIV-1 RT and RNase H-deficient derivatives was determined. In particular, RNase H-deficient strains p66^EQ/p51 and p66^DA/p51, were tested, which harbor mutations in one of the catalytically-critical amino acids contacted by manicol (E478 and D549, respectively), that would be predicted to interfere with α-hydroxytropolone binding.
(§3) Although crystallographic evidence is presently unavailable, compounds 5 and 10, thus appear capable of occupying a second site on HIV-1 RT.

HIV-1 RT RNase H = target: T2, HIV-1 RT RNase H (Human immunodeficiency virus type 1 group M subtype B, UniProt P04585); test: Cleavage of the HIV-1 polypurine tract (PPT) primer, PPT/U3 junction; format: biochemical; conditions: 20 μM inhibitor
T2 construct: RT is a p66/p51 heterodimer comprised of asymmetrically-organized subunits processed from the 165 kDa gag/pol polyprotein precursor; (His)6; made in house; host or cells: Escherichia coli
Method: FIG. 2A depicts a schematic model of RNA/DNA substrate, indicating the RNase H cleavage site at the PPT/U3 junction (< >). The PPT is indicated by the shaded box. FIG. 2B depicts the quantification of PPT cleavage data. All inhibitors were evaluated at 20 μM.
(§4) IC50 values were determined as previously reported (Budihas, S. R., et al., Nucleic Acids Res., 33(4):1249-56 (2005)), using an 18-nucleotide 3′-flourescein-labeled RNA annealed to a complementary 18-nucleotide 5′-dabsyl-labeled DNA. […] The reaction was initiated by adding 1 μl of 100 mM MgCl2 to 9 μl of mixture containing 4 ng enzyme, 200 nM substrate, 20 μM α-hydroxytropolones in 50 mM Tris, pH 8.0, 80 mM KCl, 2 mM DTT, and 10% DMSO at 37° C., and quenched with 10 μl of a gel-loading buffer after 10 minutes. Hydrolysis products were fractionated by denaturing polyacrylamide gel electrophoresis and visualized by fluorescent imaging (Typhoon Trio+, GE Healthcare, Piscataway, N.J.).
Since the high-throughput RNase H assay examines non-specific, “polymerase-independent” RNase H activity defined by the spatial separation of the DNA polymerase and RNase H active site of HIV-1 RT (Gopalakrishnan, V., et al., Proc. Natl. Acad. Sci. USA, 89(22):10763-7 (1992)), an examination of whether α-hydroxytropolones altered cleavage specificity on a more biologically-relevant substrate, namely the polypurine tract (PPT) primer, which must be processed from the RNA/DNA replication intermediate to initiate (+) strand DNA synthesis.

p66^EQ/p51 HIV-1 RT = target: T3, p66^EQ/p51 HIV-1 RT (Human immunodeficiency virus type 1 group M subtype B, UniProt P04585, E1065Q); test: DNA-dependent DNA polymerase assay, RNase H-deficient mutant p66EQ/p51; format: biochemical; conditions: 20 μM
T3 construct: RT is a p66/p51 heterodimer comprised of asymmetrically-organized subunits processed from the 165 kDa gag/pol polyprotein precursor; (His)6; made in house; host or cells: Escherichia coli
Method: as §1, §2, §3

[1] = tested on: HIV-1 virus strain RF in CEM-SS cells; test: HIV-1 cytopathicity assay; format: cell-based; conditions: for EC50: read-out: Virus Replication EC50
Method: This assay was conducted as previously reported (Weislow, O, S., et al., J. Natl. Cancer Inst., 81(8):577-86 (1989)). Samples were dissolved in DMSO at 10 mM and diluted to a final high concentration of 50 μM in the 96-well assay plate, with 2-fold dilutions made to a low concentration of about 0.78 μM. All samples were tested in duplicate. The HIV-1 virus strain RF was used to infect CEM-SS cells. Compound cytotoxicity was measured in the same assay plate using uninfected cells. Regression analysis was used to estimate the effective concentration (EC50) as well as the cytotoxic concentration (CC50).

[2] = target: T4, HIV-1 RNase H (p66/p51 HIV-1 RT) (Human immunodeficiency virus type 1 group M subtype B, UniProt P04585); test: High throughput RNase H assay on sequence-independent RNA/DNA hybrid; format: biochemical; conditions: HIV-1 RNase H enzymatic activity, sequence-independent RNA/DNA hybrid; read-out: In vitro IC50
T4 construct: RT is a p66/p51 heterodimer comprised of asymmetrically-organized subunits processed from the 165 kDa gag/pol polyprotein precursor; (His)6; made in house; host or cells: Escherichia coli
Method: as §4, with “N.J.). […]” for “N.J.).”

[3] = Compound cytotoxicity in uninfected cells (same assay plate); format: cell-based; conditions: human, uninfected CEM-SS cells; read-out: Virus Replication CC50
Method: (§5) All samples were tested in duplicate. The HIV-1 virus strain RF was used to infect CEM-SS cells. Compound cytotoxicity was measured in the same assay plate using uninfected cells. Regression analysis was used to estimate the effective concentration (EC50) as well as the cytotoxic concentration (CC50).

[4] = target: T4, HIV-1 RNase H (p66/p51 HIV-1 RT); conditions: background, previously demonstrated; cited from earlier work
[5] = tested on: HIV-1 virus strain RF in CEM-SS cells; conditions: background, previous finding; cited from earlier work
uninfected CEM-SS cells = test: Compound cytotoxicity in uninfected cells (same assay plate); format: cell-based
Method: as §5

Row | Structure (SMILES) | effect on DNA-dependent DNA polymerase activity (p66^DA/p51 HIV-1 RT) | inhibition of PPT/U3 cleavage (in words) (HIV-1 RT RNase H) | effect on DNA-dependent DNA polymerase activity (p66^EQ/p51 HIV-1 RT) | protection against the cytopathic effect of the virus (in words) ([1]; HIV-1 RF) | EC50 ([1]; Human immunodeficiency virus 1, CEM-SS, HIV-1 RF) | IC50 [2] | CC50 [3] | inhibition of RNase H activity of HIV RT in vitro [4] | EC50 ([1]; Human immunodeficiency virus 1, HIV-1 RF) | reduction of virus replication in culture [5] | EC50 ([1]; HIV-1 RF) | CC50 (uninfected CEM-SS cells)
1 | Cc1cc(O)c(=O)c(O)c2c1CC(C(C)(O)CNc1ccccc1)CC2 (mixture of isomers) [Compound 5, 5,7-Dihydroxy-2-(1-hydroxy-1-methyl-2-phenylamino-ethyl)-9-methyl-1,2,3,4-tetrahydrobenzocyclohepten-6-one] | significantly and consistently inhibited | more active in blocking PPT/U3 cleavage | significantly and consistently inhibited | showed protection | 7.4 µM | 1.2 µM | 31.7 µM |  |  |  |  | 
2 | C=C(C)[C@H]1CCc2c(c(C)cc(O)c(=O)c2O)C1 [Manicol, 5,7-dihydroxy-2-isopropenyl-9-methyl-1,2,3,4-tetrahydro-benzocyclohepten-6-one, reference compound] |  |  |  | no protection |  |  | 13.6 µM | potently and specifically inhibit | 13.6 µM | ineffective |  | 
3 | Cc1cc(O)c(=O)c(O)c2c1CC(C(C)(O)C[S+]([O-])Cc1ccccc1)CC2 (stereo not shown) [Compound 10, 2-(2-Benzylsulfinyl-1-hydroxy-1-methyl-ethyl)-5,7-dihydroxy-9-methyl-1,2,3,4-tetrahydrobenzocyclohepten-6-one] | significantly and consistently inhibited | less active | significantly and consistently inhibited | showed protection |  | 1.5 µM |  |  |  |  | 14.5 µM | > 50 µM
